Results from ChEMBL document CHEMBL4706752 (ACS Med Chem Lett, 2021).

How the values were obtained:
[1] = Decrease in IL-17a gene expression in C57BL/6 mouse model of IL-23 induced acanthosis model of psoriasis at 20 mg/kg, po BID for 10 days by RT-PCR analysis; format: functional; settings: C57BL/6, po, 240 h, time 10 day
Cytochrome P450 2C19 = Cytochrome P450 2C19 (Homo sapiens, UniProt P33261); test: Inhibition of CYP2C19 (unknown origin); format: ADME
Cytochrome P450 3A4 = Cytochrome P450 3A4 (Homo sapiens, UniProt P08684); test: Inhibition of CYP3A4 (unknown origin); format: ADME
[2] = Clearance in Balb/c mouse at 2 mg/kg, iv; format: ADME, organism-based; settings: in vivo
[3] = Unbound volume of distribution at steady state in cynomolgus monkey at 1 mg/kg, iv; format: ADME, organism-based, Macaca fascicularis; settings: in vivo
[4] = Half life in dog at 1 mg/kg, iv; format: ADME, organism-based, Canis lupus familiaris; settings: in vivo
[5] = AUC in Sprague-Dawley rat at 2 mg/kg, iv; format: ADME, organism-based; design: dose 2 mg/kg; settings: in vivo
[6] = Tmax in Balb/c mouse at 4 mg/kg, po; format: ADME, organism-based; settings: in vivo
[7] = Tmax in dog at 2 mg/kg, po; format: ADME, organism-based, Canis lupus familiaris; settings: in vivo
[8] = Cmax in Balb/c mouse at 4 mg/kg, po; format: ADME, organism-based; design: route oral, dose 4 mg/kg; settings: in vivo
[9] = Cmax in Sprague-Dawley rat at 4 mg/kg, po; format: ADME, organism-based; design: route oral, dose 4 mg/kg; settings: in vivo
[10] = AUC in Sprague-Dawley rat at 4 mg/kg, po; format: ADME, organism-based; design: dose 4 mg/kg; settings: in vivo
Mus musculus [11] = test: Suppression of ear thickness in C57BL/6 mouse model of IL-23 induced acanthosis model of psoriasis assessed as AUC of %change in ear thickness at 10 mg/kg, po BID for 10 days measured every other day; format: functional; settings: time 10 day
Mus musculus [12] = test: Antiinflammatory activity in DBA/1J mouse model of collagen-induced arthritis assessed as reduction in arthritic score at 5 to 20 mg/kg, po dosed twice daily for 21 days; format: functional, organism-based; settings: dose 5-20 mg/kg, time 21.0 day
Mus musculus [13] = test: Antiinflammatory activity in DBA/1J mouse model of collagen-induced arthritis assessed as reduction in plasma IL-6 level at 10 mg/kg, po dosed twice daily for 21 days (reference value: 80 +/- 6 pg/ml); format: functional; settings: time 21 day
Mus musculus [14] = test: Antiinflammatory activity in DBA/1J mouse model of collagen-induced arthritis assessed as reduction in plasma IL-6 level at 20 mg/kg, po dosed twice daily for 21 days (reference value: 80 +/- 6 pg/ml); format: functional; settings: time 21 day
[15] = Decrease in IL-17a gene expression in C57BL/6 mouse model of IL-23 induced acanthosis model of psoriasis at 10 mg/kg, po BID for 10 days by RT-PCR analysis; format: functional; settings: C57BL/6, po, 240 h, time 10 day
[16] = Decrease in IL-6 gene expression in C57BL/6 mouse model of IL-23 induced acanthosis model of psoriasis at 10 mg/kg, po BID for 10 days by RT-PCR analysis; format: functional; settings: C57BL/6, po, 240 h, time 10 day
[17] = Decrease in IL-6 gene expression in C57BL/6 mouse model of IL-23 induced acanthosis model of psoriasis at 20 mg/kg, po BID for 10 days by RT-PCR analysis; format: functional; settings: C57BL/6, po, 240 h, time 10 day
[18] = Decrease in LCN2 gene expression in C57BL/6 mouse model of IL-23 induced acanthosis model of psoriasis at 5 mg/kg, po BID for 10 days by RT-PCR analysis; format: functional; settings: C57BL/6, po, 240 h, time 10 day
[19] = Decrease in LCN2 gene expression in C57BL/6 mouse model of IL-23 induced acanthosis model of psoriasis at 10 mg/kg, po BID for 10 days by RT-PCR analysis; format: functional; settings: C57BL/6, po, 240 h, time 10 day
[20] = Decrease in LCN2 gene expression in C57BL/6 mouse model of IL-23 induced acanthosis model of psoriasis at 20 mg/kg, po BID for 10 days by RT-PCR analysis; format: functional; settings: C57BL/6, po, 240 h, time 10 day
[21] = molecular target: T1, Nuclear receptor subfamily 1 group I member 2 (Homo sapiens, UniProt O75469); test: Inhibition of PXR (unknown origin)
T1 sequence (O75469 whole entry): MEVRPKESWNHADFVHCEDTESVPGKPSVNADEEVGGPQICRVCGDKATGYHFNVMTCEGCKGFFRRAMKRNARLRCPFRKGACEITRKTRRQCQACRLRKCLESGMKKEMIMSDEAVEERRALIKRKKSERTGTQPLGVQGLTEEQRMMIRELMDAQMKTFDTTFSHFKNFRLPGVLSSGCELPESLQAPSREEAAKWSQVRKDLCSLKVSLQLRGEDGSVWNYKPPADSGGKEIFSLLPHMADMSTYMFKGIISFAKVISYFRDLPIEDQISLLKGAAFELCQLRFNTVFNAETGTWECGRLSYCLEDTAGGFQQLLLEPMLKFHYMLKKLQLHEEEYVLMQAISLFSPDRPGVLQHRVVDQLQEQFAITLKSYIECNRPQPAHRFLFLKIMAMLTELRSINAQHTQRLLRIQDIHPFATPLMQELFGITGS

[22] = molecular target: T2, Oxysterols receptor LXR-alpha (Homo sapiens, UniProt Q13133); test: Inhibition of LXRalpha (unknown origin)
T2 sequence (Q13133 whole entry): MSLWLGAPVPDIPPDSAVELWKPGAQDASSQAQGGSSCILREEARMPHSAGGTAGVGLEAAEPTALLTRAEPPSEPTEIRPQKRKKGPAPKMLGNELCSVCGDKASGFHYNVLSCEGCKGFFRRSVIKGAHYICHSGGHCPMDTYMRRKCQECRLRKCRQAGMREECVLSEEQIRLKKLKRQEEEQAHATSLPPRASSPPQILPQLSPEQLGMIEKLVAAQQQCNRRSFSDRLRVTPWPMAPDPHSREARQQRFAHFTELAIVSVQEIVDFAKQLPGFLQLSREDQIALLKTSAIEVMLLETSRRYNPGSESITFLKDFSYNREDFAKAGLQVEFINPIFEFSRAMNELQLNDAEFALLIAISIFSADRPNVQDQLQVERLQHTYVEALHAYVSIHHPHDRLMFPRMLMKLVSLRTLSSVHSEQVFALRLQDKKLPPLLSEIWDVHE

Mus musculus [23] = test: Antiinflammatory activity in DBA/1J mouse model of collagen-induced arthritis assessed as reduction in clinical score at 10 mg/kg, po dosed twice daily for 21 days measured on day 51; format: functional; settings: 504 h, time 21 day
Mus musculus [24] = test: Antiinflammatory activity in DBA/1J mouse model of collagen-induced arthritis assessed as reduction in histological score at 10 mg/kg, po dosed twice daily for 21 days; format: functional; settings: 504 h, time 21 day

Sequence of Cytochrome P450 3A4 (P08684 whole entry): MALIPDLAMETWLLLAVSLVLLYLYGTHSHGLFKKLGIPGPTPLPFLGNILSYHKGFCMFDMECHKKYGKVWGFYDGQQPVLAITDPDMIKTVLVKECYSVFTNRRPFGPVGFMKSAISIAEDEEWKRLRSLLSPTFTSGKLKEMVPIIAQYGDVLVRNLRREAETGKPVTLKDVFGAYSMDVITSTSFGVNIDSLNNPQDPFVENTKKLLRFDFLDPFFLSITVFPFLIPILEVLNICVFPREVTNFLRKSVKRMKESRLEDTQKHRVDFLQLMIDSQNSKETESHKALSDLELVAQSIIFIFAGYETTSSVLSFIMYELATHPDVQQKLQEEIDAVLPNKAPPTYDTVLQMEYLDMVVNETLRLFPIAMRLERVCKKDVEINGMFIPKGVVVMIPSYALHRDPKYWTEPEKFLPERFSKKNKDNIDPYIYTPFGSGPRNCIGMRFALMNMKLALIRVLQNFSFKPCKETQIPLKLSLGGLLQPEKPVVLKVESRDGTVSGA
Sequence of Cytochrome P450 2C19 (P33261 whole entry): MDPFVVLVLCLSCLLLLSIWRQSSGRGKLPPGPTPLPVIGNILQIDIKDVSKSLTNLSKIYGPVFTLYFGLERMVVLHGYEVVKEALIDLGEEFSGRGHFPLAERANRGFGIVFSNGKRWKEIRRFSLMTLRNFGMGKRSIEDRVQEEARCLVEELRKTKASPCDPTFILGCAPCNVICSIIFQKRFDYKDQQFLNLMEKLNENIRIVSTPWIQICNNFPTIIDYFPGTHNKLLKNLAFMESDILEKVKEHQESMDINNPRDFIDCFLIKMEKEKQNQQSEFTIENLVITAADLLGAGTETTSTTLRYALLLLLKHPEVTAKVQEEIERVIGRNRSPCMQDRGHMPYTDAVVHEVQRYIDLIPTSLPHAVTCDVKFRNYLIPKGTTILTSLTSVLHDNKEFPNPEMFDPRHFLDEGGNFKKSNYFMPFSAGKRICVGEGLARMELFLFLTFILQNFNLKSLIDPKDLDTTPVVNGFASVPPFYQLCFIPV

SMILES: C[C@@](O)(CS(C)(=O)=O)C(=O)N[C@@H]1CC[C@@]2(S(=O)(=O)c3ccc(F)cc3)c3ccc(C(F)(C(F)(F)F)C(F)(F)F)nc3CC[C@@H]12
- inhibition in vivo at 20 mg/kg [1]: 87.7%
- IC50 (Cytochrome P450 2C19): 19 µM
- IC50 (Cytochrome P450 3A4): > 20 µM
- clearance [2]: 2.1 mL/min/kg
- fVdss [3]: 2.7 L/kg
- half-life [4]: 67 h
- AUC [5]: 26.3 µM·h
- Tmax [6]: 2 h
- Tmax [7]: 7 h
- Cmax [8]: 2800 nM
- Cmax [9]: 1600 nM
- AUC [10]: 44.9 µM·h
- Activity (Mus musculus [11]): 66.5%
- Activity (Mus musculus [12]): Dose-dependent effect
- Activity (Mus musculus [13]): 19 pg/mL
- Activity (Mus musculus [14]): 19 pg/mL
- inhibition in vivo at 10 mg/kg [15]: 73.8%
- inhibition in vivo at 10 mg/kg [16]: 82.3%
- inhibition in vivo at 20 mg/kg [17]: 77.4%
- inhibition in vivo at 5 mg/kg [18]: 62.4%
- inhibition in vivo at 10 mg/kg [19]: 85.3%
- inhibition in vivo at 20 mg/kg [20]: 82.9%
- EC50 [21]: > 10 µM
- EC50 [22]: > 10 µM
- inhibition in vivo at 10 mg/kg (Mus musculus [23]): 64%
- inhibition in vivo at 10 mg/kg (Mus musculus [24]): 60%
